Patent publication US8623813B2, “Synergistic combinations of polyene fungicides and non-ribosomal peptides and related methods of use” (priority 2011, dated 2014)

Experiments:
Type in all cases: cell-based
Saccharomyces cerevisiae = assay: Liquid fungal growth assay in 96-well plates (YPD), Saccharomyces cerevisiae; conditions: combinations 1:1 w/w
[1] = test system: Geotrichum citri-aurantii; assay: Liquid fungal growth assay in 96-well plates, Geotrichum citri-aurantii; conditions: each component 2.23 ppm final, combinations 1:1 w/w
Description: For each 96 well plate, three separate additions were made to each well. First, 100 μl of potato dextrose broth w/100 ppm chloramphenicol was added. Then 25 μl of each sample (lipopeptides, natamycin, or combo from dilution plate) was supplemented. Finally, 50 μl of DI H2O was added to the blank plate (the plate intended to be left blank for an OD reference) OR 50 μl of 10^5 fungal inoculum was added to each well in its respective plate(s). […] The plates were then covered with lids and placed at 20° C. for 3 days of incubation. After the incubation period, the growth of each well in each plate was rated by optical density at 600 nm using a PerkinElmer Victor plate-reader using the setting “MIC Settings @600 (0.1 s)” that can be found in the Wallac® Victor® software. The results were also roughly assessed visually as cloudy wells (partial growth) appearing in the dilution series where the sample fell off in activity. After an OD was obtained for each well, the relative growth was determined by the following calculation: [(Treatment w/Bacteria)-(Treatment w/o Bacteria)/(Diluent Control w/Bacteria)-(Diluent Control w/o Bacteria)]×100. The positive control wells for bacterial growth were considered acceptable if the average and standard deviation of the OD readings at 600 nm were well above the range of the non-inoculated OD reference wells. […]

Geotrichum candidum = assay: Liquid fungal growth assay in 96-well plates, Geotrichum candidum; conditions: combinations 1:1 w/w
Description: For each 96 well plate, three separate additions were made to each well. First, 100 μl of potato dextrose broth w/100 ppm chloramphenicol was added. […] Finally, 50 μl of DI H2O was added to the blank plate (the plate intended to be left blank for an OD reference) OR 50 μl of 10^5 fungal inoculum was added to each well in its respective plate(s). […] The plates were then covered with lids and placed at 20° C. for 3 days of incubation. After the incubation period, the growth of each well in each plate was rated by optical density at 600 nm using a PerkinElmer Victor plate-reader using the setting “MIC Settings @600 (0.1 s)” that can be found in the Wallac® Victor® software. The results were also roughly assessed visually as cloudy wells (partial growth) appearing in the dilution series where the sample fell off in activity. After an OD was obtained for each well, the relative growth was determined by the following calculation: [(Treatment w/Bacteria)-(Treatment w/o Bacteria)/(Diluent Control w/Bacteria)-(Diluent Control w/o Bacteria)]×100. The positive control wells for bacterial growth were considered acceptable if the average and standard deviation of the OD readings at 600 nm were well above the range of the non-inoculated OD reference wells. […] Synergy was then determined by Gowing's Equation, set forth above. […]

[2] = test system: Saccharomyces cerevisiae wild-type strain BY4742; assay: Saccharomyces cerevisiae liquid culture growth (OD vs untreated control), Example 1; conditions: 16 hours at 30° C.
Description: A combination of lipopeptides and natamycin was tested for efficacy against Saccharomyces cerevisiae, which is generally recognized as a model organism for testing activity against fungi and which is closely related to Candida. See Smits, G J, et al., “Stress Tolerance in Fungi—To Kill a Spoilage Yeast,” Current Opin Biotechnol., 16(2): 225-30, (2005) and Castrillo, J I, et al., “Yeast as a Touchstone in Post-Genomic Research: Strategies for Integrative Analysis in Functional Genomics,” J Biochem Mol Biol., 37(1): 93-106, (2004).
Saccharomyces cerevisiae wild-type strain BY4742 was grown in liquid YPD in the presence of: (1) natamycin (Haorui Pharma-Chem Inc), (2) the above-described lipopeptide extract, (3) natamycin+lipopeptide extract, and 4) no lipopeptides or natamycin (control). The initial concentration of natamycin before being added to the liquid culture was 1 ppm and the initial concentration of lipopeptide extract was 15 ppm. Final concentration of natamycin in the liquid culture was 0.08 ppm and final concentration of lipopeptide extract was 1.12 ppm, such that the weight to weight ratio of natamycin to lipopeptide in the sample containing both was 1:14. […]
Gowing's Equation was applied, as follows, to determine synergism of lipopeptides with natamycin. […] Thus, X and Y are calculated by subtracting the amount of growth on a treated plate from 100, as shown below. […]

Penicillium expansum = assay: Liquid fungal growth assay in 96-well plates, Penicillium expansum
Description: The effect of (i) natamycin (Haorui Pharma-Chem. Inc.), (ii) a crude extract of lipopeptides from Bacillus subtilis QST713 (prepared as described in Example 1), and (iii) a combination of natamycin and a crude extract of lipopeptides on Penicillium expansum was investigated. A liquid fungal growth assay was performed in 96-well plates to determine whether the combination of lipopeptides and natamycin is synergistic in inhibiting fungal growth. All procedures were conducted aseptically.
For each 96 well plate, three separate additions were made to each well. First, 100 μl of potato dextrose broth w/100 ppm chloramphenicol was added. […]
After the incubation period, the growth of each well in each plate was rated by optical density at 600 nm using a PerkinElmer Victor plate-reader using the setting “MIC Settings @600 (0.1 s)” that can be found in the Wallac® Victor® software. The results were also roughly assessed visually as cloudy wells (partial growth) appearing in the dilution series where the sample fell off in activity.
After an OD was obtained for each well, the relative growth was determined by the following calculation: [(Treatment w/Bacteria)−(Treatment w/o Bacteria)/(Diluent Control w/Bacteria)−(Diluent Control w/o Bacteria)]×100. […]
Synergy was then determined by Gowing's Equation, set forth above. […]

Compound | % of Growth of the Given Compound(s) at 1.12 ppm (Saccharomyces cerevisiae; natamycin series, each component 1.12 ppm final, 30° C. overnight) [%] | % of Growth of the Given Compound(s) at 2.23 ppm ([1]; natamycin series) [%] | % of Growth of the Given Compound(s) at 2.23 ppm (Geotrichum candidum; natamycin series, each component 2.23 ppm final) [%] | inhibition at 0.08 ppm ([2]; Saccharomyces cerevisiae, natamycin 0.08 ppm, lipopeptide extract 1.12 ppm final, read-out: growth inhibition (X, Y, Eob = 100 − growth)) [%] | growth (OD) normalized to untreated control set at 100% ([2]; natamycin 0.08 ppm final, lipopeptide extract 1.12 ppm final (1:14 w/w), liquid YPD) [%] | Percent Growth (Penicillium expansum; 1.1 ppm final of each component, 3 days at 20° C., OD 600 nm) [%] | % of Growth of the Given Compound(s) at 2.23 ppm (Penicillium expansum; each component 2.23 ppm final, combinations 1:1 w/w) [%] | % of Growth of the Given Compound(s) at 0.56 ppm (Saccharomyces cerevisiae; nystatin series, each component 0.56 ppm final) [%] | % of Growth of the Given Compound(s) at 2.23 ppm ([1]; nystatin series) [%] | % of Growth of the Given Compound(s) at 1.12 ppm (Geotrichum candidum; nystatin series, each component 1.12 ppm final) [%]
C[C@@H]1C/C=C/C=C/C=C/C=C/[C@H](O[C@@H]2O[C@H](C)[C@@H](O)[C@H](N)[C@@H]2O)C[C@@H]2O[C@](O)(C[C@@H](O)C[C@H]3O[C@@H]3/C=C/C(=O)O1)C[C@H](O)[C@H]2C(=O)O [Natamycin, natamycin] | 97.4 | 57.4 | 110.4 | 22.1 | 77.89 | 102 | 35.38 |  |  | 
C[C@@H]1[C@H](O)[C@@H](C)/C=C/C=C/CC/C=C/C=C/C=C/C=C/C(O[C@H]2O[C@H](C)[C@@H](O)[C@H](N)[C@@H]2O)CC2O[C@](O)(CC(O)C(O)CCC(O)CC(O)CC(O)CC(=O)O[C@H]1C)CC(O)C2C(=O)O (stereo partly shown) [Nystatin, nystatin] |  |  |  |  |  |  |  | 96.5 | 30.5 | 96.2
